Experimental data as given in patent US20240190879A1, “FUSED BICYCLIC COMPOUNDS USEFUL FOR MODULATING NUCLEIC ACID SPLICING” (REMIX THERAPEUTICS INC., priority 2020, published 2024).

Experiments:
Assay type in all cases: cell-based
[1] = tested on: HTT mRNA canonical junction (CJ); experiment: RT-qPCR splicing assay, HTT canonical junction (CJ) mRNA decrease; conditions: A673 or K562 cell line, 24 hours treatment; concentration having 50% response in CJ mRNA decrease
Experimental: (§1) Compounds described herein were used to modulate RNA transcript abundance in cells. The expression of a target mRNA was measured by detecting the formation of an exon-exon junction in the canonical transcript (CJ). A compound mediated exon-inclusion event was detected by observing an increase in formation of a new junction with an alternative exon (AJ). Real-time qPCR assays were used to detect these splicing switches and interrogate the potency of various compounds towards different target genes. A high-throughput real time quantitative PCR (RT-qPCR) assay was developed to measure these two isoforms of the mRNA (CJ and AJ) for an exemplary gene, HTT, together with a control housekeeping gene, GAPDH or GUSB or PPIA, used for normalization. Briefly, the A673 or K562 cell line was treated with various compounds described herein (e.g., compounds of Formula (I)). After treatment, the levels of the HTT mRNA targets were determined from each sample of cell lysate by cDNA synthesis followed by qPCR.
(§2) The A673 cell line was cultured in DMEM with 10% FBS. Cells were diluted with full growth media and plated in a 96-well plate (15,000 cells in 100 ul media per well). The plate was incubated at 37° C. with 5% CO2 for 24 hours to allow cells to adhere. An 11-point 3-fold serial dilution of the compounds was made in DMSO then diluted in media in an intermediate plate. Compounds were transferred from the intermediate plate to the cell plate with the top dose at a final concentration of 10 uM in the well. Final DMSO concentration was kept at or below 0.25%. The cell plate was returned to the incubator at 37° C. with 5% CO2 for an additional 24 hours.
(§3) The K562 cell line was cultured in IMDM with 10% FBS. For K562, cells were diluted with full growth media and plated in either a 96-well plate (50,000 cells in 50 uL media per well) or a 384-well plate (8,000-40,000 cells in 45 uL media per well). An 11-point 3-fold serial dilution of the compounds were made in DMSO then diluted in media in an intermediate plate. Compound was transferred from the intermediate plate to the cell plate with the top dose at a final concentration of 10 uM in the well. Final DMSO concentration was kept at or below 0.25%. Final volume was 100 uL for 96-well plate and 50 uL for 384-well plate. The cell plate was then placed in an incubator at 37° C. with 5% CO2 for 24 hours.
(§4) The cells were then gently washed with 50 uL-100 uL cold PBS before proceeding to addition of lysis buffer. 30 uL-50 uL of room temperature lysis buffer with DNAse I (and optionally RNAsin) was added to each well. Cells were shaken/mixed thoroughly at room temperature for 5-10 minutes for lysis to take place and then 3 uL-5 uL of room temperature stop solution was added and wells were shaken/mixed again. After 2-5 minutes, the cell lysate plate was transferred to ice for RT-qPCR reaction setup. The lysates could also be frozen at −80° C. for later use.
(§5) In some cases, a direct lysis buffer was used. An appropriate volume of 3×lysis buffer (10 mM Tris, 150 mM NaCl, 1.5%-2.5% Igepal and 0.1-1 U/uL RNAsin, pH 7.4) was directly added to either K562 or A673 cells in media and mixed by pipetting 3 times. The plates were then incubated at room temperature with shaking/rocking for 20-50 minutes to allow for lysis to take place. After this time, the cell lysate plate was transferred to ice to set up for the RT-qPCR reactions. The lysates could also be frozen at −80° C. for later use.
(§6) To set up 10 uL RT-qPCR reactions, cell lysates were transferred to 384-well qPCR plates containing the master mix according to the table below. The plates were sealed, gently vortexed, and spun down before the run. The volumes were adjusted accordingly in some instances where the reaction was carried in 20 uL. The table below summarizes the components of the RT-qPCR reactions:
(§7) The RT-qPCR reaction was performed using a QuantStudio (ThermoFisher) under the following fast cycling conditions. […]

[2] = tested on: HTT mRNA alternative junction (AJ); experiment: RT-qPCR splicing assay, HTT alternative junction (AJ) mRNA increase; conditions: A673 or K562 cell line, 24 hours treatment; concentration having 50% response in AJ mRNA increase
Experimental: as §1, §2, §3, §4, §5, §6, §7

[3] = tested on: Target C CJ mRNA; experiment: Gene panel canonical junction qPCR assay, Target C; conditions: larger gene panel; concentration having 50% response in CJ decrease; read-out: Target C IC50 (decrease in CJ mRNA levels)
Experimental: as §1
(§8) The data analysis was performed by first determining the ΔCt vs the housekeeper gene. This ΔCt was then normalized against the DMSO control (ΔΔCt) and converted to RQ (relative quantification) using the 2^(−ΔΔCt) equation. The RQ were then converted to a percentage response by arbitrarily setting an assay window of 3.5 ΔCt for HTT-CJ and an assay window of 9 ΔCt for HTT-AJ. […] The percentage response was then fitted to the 4 parametric logistic equation to evaluate the concentration dependence of compound treatment. The increase in AJ mRNA is reported as AC50 (compound concentration having 50% response in AJ increase) while the decrease in CJ mRNA levels is reported as IC50 (compound concentration having 50% response in CJ decrease).
(§9) Additional studies were carried out for a larger panel of genes using the protocol provided above. The junction between flanking upstream and downstream exons was used to design canonical junction qPCR assays. At least one of the forward primer, reverse primer or the CY5-labeled 5′ nuclease probe (with 3′ quencher such as ZEN/Iowa Black FQ) was designed to overlap with the exon junction to capture the CJ mRNA transcript. BLAST was used to confirm the specificity of the probeset and parameters such as melting temperature, GC content, amplicon size, and primer dimer formation are considered during their design. Data for the decrease in CJ mRNA levels for three exemplary genes (HTT, SMN2, and Target C) analyzed in this panel are reported as IC50 (compound concentration having 50% response in CJ decrease).

[4] = tested on: SMN2 CJ mRNA; experiment: Gene panel canonical junction qPCR assay, SMN2; conditions: larger gene panel; concentration having 50% response in CJ decrease; read-out: SMN2 IC50 (decrease in CJ mRNA levels)
Experimental: as §1, §8, §9

[5] = tested on: HTT CJ mRNA; experiment: Gene panel canonical junction qPCR assay, HTT; conditions: larger gene panel; concentration having 50% response in CJ decrease; read-out: HTT IC50 (decrease in CJ mRNA levels)
Experimental: as §1, §8, §9

SMILES	AC50 [1]	AC50 [2]	IC50 [3]	IC50 [4]	IC50 [5]
Cc1cn2cc(-c3cccc4c(N5CCNCC5)nncc34)nc2c(C)n1 [Compound 100, 5-[6,8-dimethylimidazo[1,2-a]pyrazin-2-yl]-1-(piperazin-1-yl)phthalazine]	> 10 µM	> 10 µM			
Cc1cn2nc(-c3cccc4c(N5CCNCC5)nncc34)cc(C)c2n1 [Compound 101, 5-[2,8-dimethylimidazo[1,2-b]pyridazin-6-yl]-1-(piperazin-1-yl)phthalazine]	> 10 µM	1 to 10 µM	1 to 10 µM		
c1cc(-c2cn[nH]c2)c2cnnc(N3CCNCC3)c2c1 [Compound 102, 1-(piperazin-1-yl)-5-(1H-pyrazol-4-yl)phthalazine]	> 10 µM	> 10 µM		> 10 µM	> 10 µM
Cc1cn2nc(-c3cccc4c(C5CCNCC5)nncc34)cc(C)c2n1 [Compound 104, 5-[2,8-dimethylimidazo[1,2-b]pyridazin-6-yl]-1-(piperidin-4-yl)phthalazine]		> 10 µM			
Cc1cn2cc(-c3cccc4c(N5CCCCC5)nncc34)nc2c(C)n1 [Compound 108, 5-[6,8-dimethylimidazo[1,2-a]pyrazin-2-yl]-1-(piperidin-1-yl)phthalazine]	> 10 µM	> 10 µM	1 to 10 µM		
Cc1cn2cc(-c3cccc4c(C5=CCNCC5)nncc34)nc2c(C)n1 [Compound 109, 5-[6,8-dimethylimidazo[1,2-a]pyrazin-2-yl]-1-(1,2,3,6-tetrahydropyridin-4-yl)phthalazine]	> 10 µM	> 10 µM	1 to 10 µM		
Cc1cn2nc(NC(=O)c3cccc4c(N5CCNCC5)cnnc34)cc(C)c2n1 [Compound 111, N-[2,8-dimethylimidazo[1,2-b]pyridazin-6-yl]-4-(piperazin-1-yl)cinnoline-8-carboxamide]	> 10 µM	> 10 µM			
Cc1cn2nc(NC(=O)c3cccc4c(C5CCNCC5)cnnc34)cc(C)c2n1 [Compound 112, N-[2,8-dimethylimidazo[1,2-b]pyridazin-6-yl]-4-(piperidin-4-yl)cinnoline-8-carboxamide]	> 10 µM	> 10 µM	1 to 10 µM		
Cc1cn2cc(NC(=O)c3cccc4c(N5CCNCC5)cnnc34)cc(F)c2n1 [Compound 113, N-[8-fluoro-2-methylimidazo[1,2-a]pyridin-6-yl]-4-(piperazin-1-yl)cinnoline-8-carboxamide]	> 10 µM	1 to 10 µM	< 0.1 µM	< 0.1 µM	> 10 µM
Cc1cn2cc(NC(=O)c3cccc4c(C5CCNCC5)cnnc34)cc(F)c2n1 [Compound 114, N-[8-fluoro-2-methylimidazo[1,2-a]pyridin-6-yl]-4-(piperidin-4-yl)cinnoline-8-carboxamide]	> 10 µM	> 10 µM			
Cc1cn2cc(NC(=O)c3cccc4c(N5CCC(NC(C)(C)C)C5)cnnc34)cc(F)c2n1 (stereo not shown) [Compound 122, 4-[3-(tert-butylamino)pyrrolidin-1-yl]-N-[8-fluoro-2-methylimidazo[1,2-a]pyridin-6-yl]cinnoline-8-carboxamide]	> 10 µM	> 10 µM			
COc1cc(N2CCNCC2)c2cccc(-c3cc(C)c4nc(C)cn4n3)c2n1 [Compound 134, 8-[2,8-dimethylimidazo[1,2-b]pyridazin-6-yl]-2-methoxy-4-(piperazin-1-yl) quinoline]	1 to 10 µM	1 to 10 µM	1 to 10 µM		
COc1cc(N2CCNCC2)c2cccc(-c3cc(F)c4nc(C)cn4c3)c2n1 [Compound 138, 8-[8-fluoro-2-methylimidazo[1,2-a]pyridin-6-yl]-2-methoxy-4-(piperazin-1-yl) quinoline]	> 10 µM	> 10 µM	> 10 µM	0.1 to 1 µM	> 10 µM
Cc1cn2cc(NC(=O)c3cccc4c(N(C)C5CC(C)(C)NC(C)(C)C5)cnnc34)cc(F)c2n1 [Compound 184, N-[8-fluoro-2-methylimidazo[1,2-a]pyridin-6-yl]-4-[methyl(2,2,6,6-tetramethylpiperidin-4-yl)amino]cinnoline-8-carboxamide]	1 to 10 µM	1 to 10 µM	1 to 10 µM	1 to 10 µM	1 to 10 µM
Cc1cn2nc(-c3cccc4c3CCC(=O)N4C3CCNCC3)cc(C)c2n1 [Compound 185]	1 to 10 µM	> 10 µM		> 10 µM	1 to 10 µM
Cc1cn2cc(NC(=O)c3cccc4c(N(C)C5CCN(C)CC5)cnnc34)cc(F)c2n1 [Compound 213]	1 to 10 µM	1 to 10 µM	1 to 10 µM	1 to 10 µM	1 to 10 µM
